In patent publication US20170233409A1, “TYPE IV SECRETION SYSTEM INHIBITORS” (priority 2016, published 2017):
Entries after “also recorded” stand apart in the source; their conditions may differ.

Assays:
H. pylori = H. pylori viability (cellular ATP, CellTiter-Glo); assay type: cell-based; settings: concentrations up to 150 μM
cag T4SS [1] = assay type: cell-based, H. pylori; settings: for LogEC50, attenuation of cag T4SS-dependent IL-8 secretion / EC50: 4.5 h co-culture, normalized IL-8 secretion, non-linear regression; for cag T4SS-dependent IL-8 secretion: H. pylori-gastric epithelial cell co-culture, 25-150 μM; for EC50: read-out: EC50, attenuation of cag T4SS-dependent IL-8 secretion
cag T4SS [2] = assay: NF-κB luciferase reporter activation by H. pylori in AGS cells; assay type: cell-based; settings: for cag T4SS-dependent NF-κB activation: WT H. pylori, AGS NF-κB-luc cells; for cag T4SS-mediated NF-κB activation by H. pylori strains of different phylogeographic origins: multiple H. pylori strains
Protocol: Quantitation of NF-κB signaling activation. AGS cells stably transfected with an NF-κB-luciferase reporter (AGS NF-κB-luc) were cultured for 24 h and treated as described for the IL-8 induction studies. After 4 h co-culture with H. pylori, cell monolayers were washed with sterile PBS, and cell monolayer extracts were obtained by passive cell lysis. NF-κB-luciferase activity was measured by the Steady-Glo Luciferase Assay System (Promega) on a BioTek Synergy 4 plate reader, and plates were normalized to the DMSO vehicle control for each dilution series.

cag T4SS [3] = assay: CagA translocation assay (tyrosine-phosphorylated CagA immunoblot); assay type: cell-based, H. pylori; settings: 150 μM; compared to vehicle-only and GKP42-treated controls
H. pylori cag T4SS = assay type: cell-based; settings: for T4SS-dependent activation of TLR9 by H. pylori: strain J166 pre-treated 30 min, 50 μM, 18 hours
TLR9 = molecular target: T1, TLR9 (Homo sapiens, UniProt Q9NR96); assay: TLR9 activation by CpG ODN (control); assay type: cell-based; settings: 50 μM
T1 construct: host or cells: HEK293-TLR9 reporter cell line
T1 sequence (Q9NR96 26-1032): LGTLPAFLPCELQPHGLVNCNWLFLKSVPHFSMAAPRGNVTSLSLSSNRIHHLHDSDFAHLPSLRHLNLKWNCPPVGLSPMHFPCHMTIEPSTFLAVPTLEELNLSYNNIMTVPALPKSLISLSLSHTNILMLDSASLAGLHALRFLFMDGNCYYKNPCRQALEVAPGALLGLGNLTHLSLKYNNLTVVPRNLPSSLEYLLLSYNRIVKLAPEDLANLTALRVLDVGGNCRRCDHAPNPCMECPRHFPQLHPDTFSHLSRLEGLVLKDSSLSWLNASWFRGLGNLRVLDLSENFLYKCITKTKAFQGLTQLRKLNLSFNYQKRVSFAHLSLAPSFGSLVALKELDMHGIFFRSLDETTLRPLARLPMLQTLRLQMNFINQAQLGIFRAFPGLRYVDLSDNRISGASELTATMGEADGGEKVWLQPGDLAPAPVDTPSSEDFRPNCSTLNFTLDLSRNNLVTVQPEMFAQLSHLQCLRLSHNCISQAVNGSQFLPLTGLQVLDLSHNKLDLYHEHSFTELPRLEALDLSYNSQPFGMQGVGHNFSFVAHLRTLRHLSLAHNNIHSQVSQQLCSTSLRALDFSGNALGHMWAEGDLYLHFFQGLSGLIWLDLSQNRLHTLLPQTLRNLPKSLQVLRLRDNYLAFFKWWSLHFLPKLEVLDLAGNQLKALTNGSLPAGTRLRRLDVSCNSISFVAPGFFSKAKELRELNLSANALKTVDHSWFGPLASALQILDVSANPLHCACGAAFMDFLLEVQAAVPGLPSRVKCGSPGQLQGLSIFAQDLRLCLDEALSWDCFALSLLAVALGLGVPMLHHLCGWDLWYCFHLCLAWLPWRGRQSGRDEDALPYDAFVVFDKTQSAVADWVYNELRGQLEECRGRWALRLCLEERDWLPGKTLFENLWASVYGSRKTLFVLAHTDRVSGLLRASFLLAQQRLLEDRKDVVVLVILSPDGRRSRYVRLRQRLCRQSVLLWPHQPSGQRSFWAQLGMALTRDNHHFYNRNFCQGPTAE
Protocol: Inhibition of T4SS-dependent activation of human TLR9 signaling by H. pylori. H. pylori strain J166 was grown in broth culture overnight, and was subsequently pre-treated in the indicated compound at a final concentration of 50 μM, or in an equivalent volume of DMSO vehicle for 30 min prior to inoculating cultured HEK293-TLR9 reporter cell lines. Co-cultures were incubated in the presence of 50 μM compound or an equivalent volume of DMSO vehicle supplemented in the cell culture media for the duration of incubation (18 hours). TLR9 activation was assayed using a colorimetric assay (Invivogen), and TLR9 activation in the presence of type IV secretion system (T4SS) inhibitor compounds is expressed as a percentage of TLR9 activation by H. pylori in the presence of vehicle. As a control, TLR9 was activated with the immunostimulatory synthetic ligand CpG oligodeoxynucleotide (CpG ODN) in the presence of DMSO or inhibitor compound at 50 μM final concentration.

[4] = test system: IncF group R1-16 conjugative T4SS; assay: DNA conjugation efficiency, R1-16; settings: 150 μM
Protocol: (§1) Analysis of DNA conjugation efficiency. Overnight cultures of donor E. coli MG1655 harboring pKM101, donor E. coli MS411 harboring R1-16, and recipient E. coli MG1655 (WM1652) were grown at 37° C. with shaking at 225 rpm in LB/antibiotic, were diluted in antibiotic-free LB containing DMSO or 150 μM compound, and incubated with shaking at 37° C. to reach an OD600 of ˜0.3. Donor and recipient cells were mixed at a ratio of 1:1 on 0.22 μM pore size mixed cellulose ester filters (Millipore) on antibiotic-free LB plates for 2 h at 37° C. Filters were aseptically removed from LB plates and incubated in 100 μl antibiotic-free LB to dislodge E. coli from membranes. Serial dilutions were plated on the appropriate antibiotic (or dual antibiotic) LB plates to determine the number of donor, recipient, and transconjugant cells. Colonies were enumerated after 24 h, and conjugation efficiencies were calculated by dividing the average number of transconjugates by the average number of donors (either pKM101 or R1-16 donor cells). Conjugation efficiency in the presence of compound is expressed as a percentage of conjugation efficiency in DMSO.

[5] = test system: IncN group conjugative T4SS encoded by pKM101; assay: DNA conjugation efficiency, pKM101; settings: 150 μM, compared to vehicle controls
Protocol: as §1

cag T4SS pili = assay: Scanning electron microscopy of cag T4SS pili; assay type: cell-based, H. pylori; settings: 150 μM, SEM
Protocol: Scanning electron microscopy. Overnight cultures of H. pylori were diluted to OD600˜0.3 and incubated with shaking at 37° C., 5% CO2 for 1 h in the presence of vehicle or 150 μM compound and co-cultured with AGS cells on tissue culture-treated coverslips (BD Biosciences) at an MOI of 100 in the presence of 150 μM compound or vehicle. H. pylori-AGS cell co-cultures were processed and imaged.
Field emission gun scanning electron microscopy. Samples were fixed with 2.0% paraformaldehyde, 2.5% glutaraldehyde in 0.05 M sodium cacodylate buffer, and secondarily fixed with 0.1% osmium tetroxide. Sequential dehydration was performed by washing with increasing concentrations of ethanol. Samples were dried at the critical point with a Tousimis critical point dryer. Coverslips were mounted onto aluminum stubs and sputter coated with gold-palladium and imaged with an FEI Quanta 250 FEG-SEM.

Row | SMILES | viability of bacterial cells (H. pylori) | LogEC50, attenuation of cag T4SS-dependent IL-8 secretion (cag T4SS [1]) | cag T4SS-dependent IL-8 secretion (cag T4SS [1]) | EC50 (cag T4SS [1]) [µM] | cag T4SS-dependent NF-κB activation (cag T4SS [2]) | cag T4SS-mediated NF-κB activation by H. pylori strains of different phylogeographic origins (cag T4SS [2]) | NF-κB activation by H. pylori ΔcagA mutant compared to WT strain (cag T4SS [2]) | amount of tyrosine-phosphorylated CagA in cultured gastric epithelial cells (cag T4SS [3]) | T4SS Inhibiton [50 μM] (TLR9 Activation Assay) (H. pylori cag T4SS; no bacterial pre-treatment, about 18 hours post-infection, HEK293-TLR9 cells) | T4SS-dependent activation of TLR9 by H. pylori (H. pylori cag T4SS) | activation of TLR9 by CpG ODN (TLR9) | DNA conjugation efficiency of the de-repressed R1-16 system [4] | DNA conjugation efficiency of pKM101 [5] | cag T4SS pilus formation at the bacteria-host cell interface (cag T4SS pili)
1 | O=C(O)[C@@H]1CSc2c(C3CC3)c(Cc3cccc4ccccc34)cc(=O)n21 [Compound C10, (3R)-8-cyclopropyl-7-(naphthalen-1-ylmethyl)-5-oxo-3,5-dihydro-2H-thiazolo[3,2-a]pyridine-3-carboxylic acid] | did not impact viability | −1.19 | significantly reduced | 64.5 | significantly reduced | inhibited | the same as those observed in the WT strain | significantly reduced | ++ | inhibit | not by CpG ODN | reduced DNA transfer | reduced | –
2 | COc1ccc(Cc2cc(=O)n3c(c2C2CC2)SC[C@H]3C(=O)O)c2ccccc12 [KSK85, (3R)-7-[(4-methoxynaphthalen-1-yl)methyl]-8-cyclopropyl-5-oxo-2,3-dihydro-5H-[1,3]thiazolo[3,2-a]pyridine-3-carboxylic acid] | did not impact viability | −1.14 | significantly reduced | 72.2 | significantly reduced; also recorded: reduced compared to the inhibitory effects of C10 | inhibited | significantly enhanced | significantly reduced | – | inhibit | not by CpG ODN | did not | reduced | abrogated pilus formation in the majority of H. pylori cells
